From paper PMC5216765, “Tumor suppressor berberine binds VASP to inhibit cell migration in basal-like breast cancer” (Oncotarget, 2016)

Molecular target: T1, VASP (vasodilator-stimulated phosphoprotein) (Homo sapiens, UniProt P50552)
T1 construct: recombinant VASP expressed in E. coli Rosetta (IPTG, 18 °C), as previously described
Test: intrinsic tryptophan fluorescence quenching titration (excitation […] nm)
Type: binding
Details: 25 °C; 0.4 μM VASP; berberine 0 to 3.4 μM

T1 sequence (P50552 2-380): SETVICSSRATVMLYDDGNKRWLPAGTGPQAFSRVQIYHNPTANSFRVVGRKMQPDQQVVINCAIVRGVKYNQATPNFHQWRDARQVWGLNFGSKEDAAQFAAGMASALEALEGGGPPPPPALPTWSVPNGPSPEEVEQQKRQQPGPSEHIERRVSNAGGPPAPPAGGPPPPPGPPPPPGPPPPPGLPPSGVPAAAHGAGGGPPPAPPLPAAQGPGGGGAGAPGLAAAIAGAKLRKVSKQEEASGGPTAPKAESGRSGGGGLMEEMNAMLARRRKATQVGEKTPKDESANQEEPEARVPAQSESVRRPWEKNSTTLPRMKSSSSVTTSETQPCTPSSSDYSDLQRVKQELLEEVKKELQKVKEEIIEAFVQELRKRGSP

Question: For `COc1ccc2cc3[n+](cc2c1OC)CCc1cc2c(cc1-3)OCO2` [berberine], which Kd is on record?
Answer: The Kd was 100 nM.
